# US20040259833A1 (priority 1999, published 2004)
# Like-named read-outs stand apart in the source and are kept apart here.
# Assays:
# [1] = test system: bacterial cells expressing an adenine DNA methyltransferase; format: cell-based
# Bacillus subtilis = experiment: microbe, parasite or virus in culture; format: cell-based
# Helicobacter pylori = format: cell-based; settings: read-out: IC50, cell growth inhibition
# [2] = biological target: dcm methyltransferase (HhaI) (Haemophilus parahaemolyticus, UniProt P05102); format: biochemical, Hemophilus hemolyticus; settings: at 500 μM
# [3] = test system: Agrobacterium tumefaciens; format: cell-based; settings: read-out: IC50, cell growth inhibition
# dam methylase (E. coli) = dam methylase (E. coli) (Escherichia coli, UniProt P0AEE8); format: biochemical; settings: at 100 μM
# Caulobacter cresentus = experiment: microbe, parasite or virus in culture; format: cell-based
# [4] = biological target: adenine DNA methyltransferase (Caulobacter vibrioides (Caulobacter crescentus), UniProt P0CAW2); format: biochemical
# [5] = read-out: IC50, cell growth inhibition
# [6] = Bacillus subtilis, read-out: IC50, Bacillus subtilis
# [7] = Caulobacter, read-out: IC50, Caulobacter cresentus
# Chain of dam methylase (E. coli) (P0AEE8 whole entry): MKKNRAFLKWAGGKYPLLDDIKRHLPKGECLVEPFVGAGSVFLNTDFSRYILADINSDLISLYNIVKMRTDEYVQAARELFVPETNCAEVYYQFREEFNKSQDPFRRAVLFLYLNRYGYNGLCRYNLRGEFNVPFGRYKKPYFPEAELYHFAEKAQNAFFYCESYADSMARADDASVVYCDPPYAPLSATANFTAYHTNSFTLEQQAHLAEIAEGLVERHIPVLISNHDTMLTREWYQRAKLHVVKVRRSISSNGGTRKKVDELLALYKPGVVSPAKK
# Chain of dcm methyltransferase (HhaI) (P05102 whole entry): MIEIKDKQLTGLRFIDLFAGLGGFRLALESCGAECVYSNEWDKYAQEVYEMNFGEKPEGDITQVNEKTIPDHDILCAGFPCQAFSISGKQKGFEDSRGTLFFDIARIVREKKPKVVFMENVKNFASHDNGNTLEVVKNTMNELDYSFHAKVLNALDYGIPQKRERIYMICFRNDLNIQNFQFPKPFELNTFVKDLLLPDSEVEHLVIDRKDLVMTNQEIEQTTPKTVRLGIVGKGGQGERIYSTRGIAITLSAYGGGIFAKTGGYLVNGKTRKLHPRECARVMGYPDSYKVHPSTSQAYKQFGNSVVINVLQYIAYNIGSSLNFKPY
# Chain of adenine DNA methyltransferase (P0CAW2 whole entry): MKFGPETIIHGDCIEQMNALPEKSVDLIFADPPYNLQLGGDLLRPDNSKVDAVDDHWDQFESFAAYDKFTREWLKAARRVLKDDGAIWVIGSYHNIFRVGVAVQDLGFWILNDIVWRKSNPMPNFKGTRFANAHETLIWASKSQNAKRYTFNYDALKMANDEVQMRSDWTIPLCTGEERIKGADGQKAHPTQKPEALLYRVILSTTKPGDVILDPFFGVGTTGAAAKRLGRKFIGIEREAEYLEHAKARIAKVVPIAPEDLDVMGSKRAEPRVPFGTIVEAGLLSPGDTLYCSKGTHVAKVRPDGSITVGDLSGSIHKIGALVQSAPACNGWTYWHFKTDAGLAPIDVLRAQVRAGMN
Compound,IC50 (Bacillus subtilis; [5]) [µM],IC50 (Helicobacter pylori) [µM],inhibition of dcm methyltransferase (HhaI) [2],IC50 [3] [µM],inhibition of dam methylase (E. coli) (dam methylase (E. coli)),IC50 (Caulobacter cresentus; [5]) [µM],IC50 (Bacillus subtilis; [6]) [µM],IC50 (Caulobacter cresentus; [7]) [µM],also measured
c1ccc(B(OCCNc2ncnc3[nH]cnc23)c2ccccc2)cc1,–,–,–,–,–,–,–,–,concentration that inhibits cell growth [1]: < 50 µM
6-N-(diphenylborinic ester)-ethyl-9-(2-(4-morpholinyl)-ethyl)-adenine [Compound 3b],1 to 10,< 25,No inhibition at all,25,Complete inhibition,< 25,–,–,–
"Fc1ccc([B-]2(c3ccc(F)cc3)Oc3cccc4ccc[n+]2c34)cc1 [(1), di-(p-fluorophenyl)borinic acid 8-hydroxyquiniline ester]",–,–,–,–,–,–,14,23,–
6-N-(diphenylborinic ester)-ethyl-9-(2-(2-(2-hydroxyethoxy)ethoxy)ethyl)-adenine [Compound 3d],10 to 50,25 to 100,No inhibition at all,< 25,Complete inhibition,< 25,–,–,–
"Clc1ccc([B-]2(c3ccc(Cl)cc3)[NH2+]CCO2)cc1 [(5), di-(p-chlorophenyl)borinic acid ethanolamine ester]",–,–,–,–,–,–,32,17,–
"Fc1ccc([B-]2(c3ccc(F)cc3)[NH2+]CCO2)cc1 [(4), di-(p-fluorophenyl)borinic acid ethanolamine ester]",–,–,–,–,–,–,34,85,–
"Clc1ccc([B-]2(c3ccc(Cl)cc3)Oc3cccc4ccc[n+]2c34)cc1 [(2), di-(p-chlorophenyl)borinic acid 8-hydroxyquiniline ester]",–,–,–,–,–,–,7,16,–
6-N-(diphenylborinic ester)-ethyl-adenine [Compound 3a],10 to 50,< 25,No inhibition at all,> 100,Complete inhibition,< 25,–,–,–
6-N-(diphenylborinic ester)-ethyl-9-(ethyl-2-acrylate)-methyl-adenine [Compound 3e],–,25,No inhibition at all,< 25,Complete inhibition,< 25,–,–,–
NCCNc1ncnc2[nH]cnc12 [compound (8)],–,–,–,–,–,–,–,–,inhibitory activity [4]: relatively low (mM range)
6-N-(diphenylborinic ester)-ethyl-9-(3-(N-phthaloyl)-aminopropyl)-adenine [Compound 3c],1 to 10,25 to 100,No inhibition at all,25,Complete inhibition,< 25,–,–,–
"c1ccc([B-]2(c3ccccc3)Oc3cccc4ccc[n+]2c34)cc1 [(3), diphenylborinic acid 8-hydroxyquiniline ester]",–,–,–,–,–,–,–,> 100,–
